Measurements: article PMC6713218, “Hyaluronic acid-functionalized bilosomes for targeted delivery of tripterine to inflamed area with enhancive therapy on arthritis” (Drug Delivery, 2019)

Key:
RAW264.7 cells = test: Cellular uptake test (intracellular Tri by HPLC); assay type: cell-based, murine; conditions: for Reduction in cellular uptake of HA@Tri-BLs: inhibitor or competitor added: free HA 25 μM, HUTCH-1 10 μg/mL, hypertonic sucrose 400 mM, chlorpromazine 25 μM, EIPA 50 μM, vs control without inhibitor
Procedure: The cellular uptake of Tri-loaded bilosomes were investigated in RAW264.7 cells, a murine macrophage line. The cells were cultured in a RPMI-1640 medium containing 10% FBS (Gibco, CA, USA) at 37 °C in 5% CO2. When the cells grew to 80 ∼ 90% confluence, they were eligible for the cellular uptake test. Tri solution (dissolve in 75% ethanol), Tri-BLs and HA@Tri-BLs were diluted to 10 μg/mL with the culture medium and introduced into the cell wells for coincubation. To elucidate the uptake mechanism of HA@Tri-BLs, the uptake of HA@Tri-BLs was specially measured in the presence of various cytosis inhibitors or competitor, including hypertonic sucrose (400 mM), chlorpromazine (25 μM), simvastatin (5 μM), genistein (200 μM), free HA (25 μM), HUTCH-1 (10 μg/mL), EIPA (50 μM) and Lantraculin A (2.5 μM) (Deng et al., [2017]). The intracellular drug concentration was determined using HPLC by lysing the cells with RIPA lysis buffer and corrected by the protein content with BCA protein assay kit.

[1] = Plasma pharmacokinetics in arthritic rats; assay type: in vivo; conditions: Sprague-Dawley, rat, iv, i.v. 10 mg/kg, mean ± SD
Procedure: The pharmacokinetics and tissue distribution of free Tri, Tri-BLs and HA@Tri-BLs were studied in arthritic rats. Sprague–Dawley (SD) rats weighing 250 ± 20 g were used to establish the arthritic model. The rats were acclimatized for 20 days in a standard animal room and provided with food and water ad libitum. On the 21st day, the rats were received injection of Freund’s complete adjuvant (FCA) containing 10 mg/mL of Mycobacterium tuberculosis (Sigma-Aldrich) at the right foot (Jia and He, [2016]). […] The established arthritic rats were intravenously injected with Tri solution (dissolved in 75% ethanol solution and diluted with deionized water), Tri-BLs and HA@Tri-BLs via the jugular vein at a dose of 10 mg/kg. After administration, aliquots of blood (∼250 μL) were continuously sampled from the caudal vein into heparinized tubes at predetermined intervals.
Another three groups of arthritic rats were applied for biodistribution study to analyze the in vivo drug distribution of Tri solution, Tri-BLs and HA@Tri-BLs. At 0.5, 1, 2 and 4 h after injection, […] were sacrificed, and the heart, liver, spleen, lung, and kidney as well as the joint were excised or harvested. The drug in the blood and tissue samples was extracted twice with ethyl acetate from the prepared plasma and tissue homogenates (Zhang et al., [2014]). The extracted drug solution was then condensed and reconstituted in 50 μL of methanol for HPLC analysis with gossypol as an internal standard. The experimental protocols settled were reviewed and approved by the Animal Care and Use Committee of Chengdu University of Traditional Chinese Medicine.

[2] = Intra-articular pharmacokinetics and biodistribution in arthritic rats; assay type: in vivo, Sprague–Dawley (SD) rats
Water solubility = assay type: physicochemical

CCN(c1nc(N)c(C(=O)NC(=N)N)nc1Cl)C(C)C [EIPA, ethylisopropyl amiloride]
Reduction in cellular uptake of HA@Tri-BLs (RAW264.7 cells): inhibited the cellular uptake of HA@Tri-BLs to different extents

CC1=C(O)C(=O)C=C2C1=CC=C1[C@@]2(C)CC[C@@]2(C)[C@@H]3C[C@](C)(C(=O)O)CC[C@]3(C)CC[C@]12C [Tri solution, Tripterine]
Cellular uptake of Tri (intracellular Tri content) (RAW264.7 cells; 10 μg/mL, three incubation times): minimal uptake level | AUC(0-inf) ([1]; n = 6): 35900 ± 530 ng·h/mL | half-life ([1]; n = 6): 6.15 ± 0.22 h | clearance ([1]; n = 6, read-out: CL (total drug clearance from plasma) (converted)): 4.65 mL/min | Cmax ([1]; n = 6, read-out: Cmax (maximum plasma concentration)): 22600 ± 710 ng/mL | MRT ([1]; n = 6, read-out: MRT (mean residence time)): 7.07 ± 0.767 h | Vd ([1]; n = 6, read-out: V (apparent volume of distribution)): 1.97 ± 0.35 L | Cmax ([2]; Sprague-Dawley, rat, iv, arthritic rats, i.v. 10 mg/kg, joint, mean ± SD, n = 6): 652 ± 146 ng/mL | AUC(0-t) ([2]; Sprague-Dawley, rat, iv, arthritic rats, i.v. 10 mg/kg, joint, mean ± SD, n = 6, read-out: AUC0−t in the joint): 1470 ± 402 ng·h/mL | AUC(0-inf) ([2]; Sprague-Dawley, rat, iv, arthritic rats, i.v. 10 mg/kg, joint, read-out: AUC0–∞ pertinent to the joints): 1470 ng·h/mL | Biodistribution of Tri in organs ([2]; arthritic rats, 0.5, 1, 2 and 4 h after injection): high distribution in the organs of heart and kidney besides the plasma | Water-solubility (Water solubility): extremely poor water-solubility

CN(C)CCCN1c2ccccc2Sc2ccc(Cl)cc21 [chlorpromazine, Chlorpromazine]
Reduction in cellular uptake of HA@Tri-BLs (RAW264.7 cells): inhibited the cellular uptake of HA@Tri-BLs to different extents

OC[C@H]1O[C@@](CO)(O[C@H]2O[C@H](CO)[C@@H](O)[C@H](O)[C@H]2O)[C@@H](O)[C@@H]1O [hypertonic sucrose, sucrose]
Reduction in cellular uptake of HA@Tri-BLs (RAW264.7 cells): inhibited the cellular uptake of HA@Tri-BLs to different extents

hyaluronic acid [free HA]
Reduction in cellular uptake of HA@Tri-BLs (RAW264.7 cells): 47.5%
